Inconclusive results are not listed.
Tested on: Lewis lung carcinoma i.m., BDF1 mice, T/C %
Experiment: NCI In Vivo Anticancer Drug Screen. Data for tumor model Lewis Lung Carcinoma (intramuscular) in B6D2F1 (BDF1) mice
Method in brief: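 Compound given to mice with transplantable tumours; survival or tumour size compared against the vehicle control group, reported as T divided by C.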

[1] = endpoint: median survival time, dose: 2.0 mg/kg/injection, schedule: Q01DX011 (ip), vehicle: saline, higher = longer survival
[2] = endpoint: median survival time, dose: 4.0 mg/kg/injection, schedule: Q01DX011 (ip), vehicle: saline, higher = longer survival

How did the T/C (endpoint: mean tumor weight, dose: 0.1 mg/kg/injection, schedule: Q01DX011 (ip), vehicle: saline, higher = larger tumour) turn out when `CC1CC(C)(O)CC(C(O)CC2CC(=O)NC(=O)C2)C1=O` (configuration not stated) was run?
The T/C was 56 % of control.

And the T/C (endpoint: median survival time, dose: 0.1 mg/kg/injection, schedule: Q01DX011 (ip), vehicle: saline, higher = longer survival)?
The T/C was 90 % of control.

What does the source list for `C1OC1CN1CCN(CC2CO2)CC1` (configuration not stated)?
T/C (endpoint: mean tumor weight (est.), dose: 1.0 mg/kg/injection, schedule: Q01DX011 (ip), vehicle: saline, higher = larger tumour): 83 % of control; T/C (endpoint: mean tumor weight (est.), dose: 2.0 mg/kg/injection, schedule: Q01DX011 (ip), vehicle: saline, higher = larger tumour): 65 % of control; T/C (endpoint: mean tumor weight (est.), dose: 4.0 mg/kg/injection, schedule: Q01DX011 (ip), vehicle: saline, higher = larger tumour): 74 % of control; T/C (endpoint: mean tumor weight (est.), dose: 8.0 mg/kg/injection, schedule: Q01DX011 (ip), vehicle: saline, higher = larger tumour): 71 % of control; T/C (endpoint: mean tumor weight (est.), dose: 16.0 mg/kg/injection, schedule: Q01DX011 (ip), vehicle: saline, higher = larger tumour): 63 % of control; T/C [1]: 96 % of control; T/C [2]: 105 % of control; T/C (endpoint: median survival time, dose: 16.0 mg/kg/injection, schedule: Q01DX011 (ip), vehicle: saline, higher = longer survival): 106 % of control

Which T/C (endpoint: median survival time, dose: 3.12 mg/kg/injection, schedule: Q01DX011 (ip), vehicle: saline, higher = longer survival) does the source give for `NC(C(=O)O)C(F)(F)C(=O)O` (configuration not stated) here?
Its T/C is 109 % of control.

What about the T/C (endpoint: median survival time, dose: 6.25 mg/kg/injection, schedule: Q01DX011 (ip), vehicle: saline, higher = longer survival) of the same compound?
The T/C was 100 % of control.

What about the T/C (endpoint: median survival time, dose: 12.5 mg/kg/injection, schedule: Q01DX011 (ip), vehicle: saline, higher = longer survival) of the same compound?
The T/C was 104 % of control.

What does the source list for `Cc1ccc(NC(=O)N(CCCl)N=O)cc1C`?
T/C (endpoint: median survival time, dose: 8.4 mg/kg/injection, schedule: Q07DX003 (ip), vehicle: Klucel (hydroxypropylcellulose) (HPC), higher = longer survival): 106 % of control; T/C (endpoint: median survival time, dose: 14.0 mg/kg/injection, schedule: Q07DX003 (ip), vehicle: Klucel (hydroxypropylcellulose) (HPC), higher = longer survival): 91 % of control; T/C (endpoint: median survival time, dose: 23.0 mg/kg/injection, schedule: Q07DX003 (ip), vehicle: Klucel (hydroxypropylcellulose) (HPC), higher = longer survival): 97 % of control

Which T/C [1] does the source give for `CCCCCCCCCCCC[S+](C)C` here?
The T/C was 100 % of control.

What about the T/C [2] of the same compound?
The T/C was 114 % of control.

What does the source list for `Nc1cc(S(N)(=O)=O)ccc1SSc1ccc(S(N)(=O)=O)cc1N`?
T/C (endpoint: mean tumor weight (est.), dose: 62.5 mg/kg/injection, schedule: Q01DX011 (ip), vehicle: saline with Tween-80, higher = larger tumour): 65 % of control; T/C (endpoint: mean tumor weight (est.), dose: 125.0 mg/kg/injection, schedule: Q01DX011 (ip), vehicle: saline with Tween-80, higher = larger tumour): 24 % of control; T/C (endpoint: median survival time, dose: 62.5 mg/kg/injection, schedule: Q01DX011 (ip), vehicle: saline with Tween-80, higher = longer survival): 103 % of control; T/C (endpoint: median survival time, dose: 125.0 mg/kg/injection, schedule: Q01DX011 (ip), vehicle: saline with Tween-80, higher = longer survival): 98 % of control
